Source: article PMC11876601 (Molecular Systems Biology, 2025)

Assays:
Dan-G = experiment: cells; parameters: ATPlite luminescence viability of PDAC cell lines, 11-dose single-agent curves, 4-parameter fit; settings: 72 h, read-out: EC50 [nM]
How it was run: (§1)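 Drug-combination screening used cells plated at 1000 to 5000 per well one day before treatment. Final DMSO was 0.2%. Each plate held untreated negative-control wells and 5 µM staurosporine positive-control wells.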

FAMPAC = experiment: cells; parameters: ATPlite luminescence viability of PDAC cell lines, 11-dose single-agent curves, 4-parameter fit; settings: 72 h, read-out: EC50 [nM]
How it was run: as §1

Suit2-07 = experiment: cells; parameters: ATPlite luminescence viability of PDAC cell lines, 11-dose single-agent curves, 4-parameter fit; settings: 72 h, read-out: EC50 [nM]
How it was run: as §1

TBKBP1 = settings: TBKBP1, 5 cell line mix lysate, Kinobeads ε, ref Reinecke et al. (2023), cited from earlier work
PTK6 = tested on: PTK6; parameters: method as in Reinecke et al. (2023); settings: PTK6, 5 cell line mix lysate, Kinobeads ε, ref Reinecke et al. (2023), cited from earlier work
FES = target: FES; parameters: method as in Reinecke et al. (2023); settings: 5 cell line mix lysate, Kinobeads ε, ref Reinecke et al. (2023), cited from earlier work
NUAK2 = tested on: NUAK2; parameters: method as in Reinecke et al. (2023); settings: NUAK2, 5 cell line mix lysate, Kinobeads ε, ref Reinecke et al. (2023), cited from earlier work
LOC102724428;SIK1 = tested on: LOC102724428;SIK1; parameters: method as in Reinecke et al. (2023); settings: LOC102724428;SIK1, 5 cell line mix lysate, Kinobeads ε, ref Reinecke et al. (2023), cited from earlier work
PRKAA1 = tested on: PRKAA1; parameters: method as in Reinecke et al. (2023); settings: PRKAA1, 5 cell line mix lysate, Kinobeads ε, ref Reinecke et al. (2023), cited from earlier work
ABL2 = tested on: ABL2; parameters: method as in Reinecke et al. (2023); settings: ABL2, 5 cell line mix lysate, Kinobeads ε, ref Reinecke et al. (2023), cited from earlier work
TAOK2 = tested on: TAOK2; parameters: method as in Reinecke et al. (2023); settings: TAOK2, 5 cell line mix lysate, Kinobeads ε, ref Reinecke et al. (2023), cited from earlier work
JAK2 = tested on: JAK2; parameters: method as in Reinecke et al. (2023); settings: JAK2, 5 cell line mix lysate, Kinobeads ε, ref Reinecke et al. (2023), cited from earlier work
BUB1 = tested on: BUB1; parameters: method as in Reinecke et al. (2023); settings: BUB1, 5 cell line mix lysate, Kinobeads ε, ref Reinecke et al. (2023), cited from earlier work
HuP-T4 = experiment: cells; parameters: ATPlite luminescence viability of PDAC cell lines, 11-dose single-agent curves, 4-parameter fit; settings: Homo sapiens, HuP-T4, 72 h, read-out: EC50 [nM]
How it was run: as §1

PANC-1 = experiment: cells; parameters: ATPlite luminescence viability of PDAC cell lines, 11-dose single-agent curves, 4-parameter fit; settings: Homo sapiens, PANC-1, 72 h, read-out: EC50 [nM]
How it was run: as §1

SMILES: CCN1CCN(Cc2ccc(Nc3ncc(F)c(-c4cc(F)c5nc(C)n(C(C)C)c5c4)n3)nc2)CC1 [Abemaciclib]
- EC50 (Dan-G): > 10000 nM
- EC50 (FAMPAC): > 10000 nM
- EC50 (Suit2-07): 250 nM

SMILES: COc1cc(N2CCC(N3CCN(C)CC3)CC2)ccc1Nc1ncc(Cl)c(Nc2ccccc2P(C)(C)=O)n1 [Brigatinib]
- EC50 (TBKBP1): 940 nM
- pKDapp (TBKBP1): 6.13
- Kd (TBKBP1; read-out: KDapp): 746 nM
- EC50 (PTK6): 85.9 nM
- pKDapp (PTK6): 7.38
- Kd (PTK6; read-out: KDapp): 41.5 nM
- Kd (FES; read-out: KDapp): 63 nM
- EC50 (FES): 170 nM
- pKDapp (FES): 7.20
- EC50 (NUAK2): 88.5 nM
- pKDapp (NUAK2): 7.17
- Kd (NUAK2; read-out: KDapp): 68.3 nM
- EC50 (LOC102724428;SIK1): 106 nM
- pKDapp (LOC102724428;SIK1): 6.98
- Kd (LOC102724428;SIK1; read-out: KDapp): 106 nM
- EC50 (PRKAA1): 1110 nM
- pKDapp (PRKAA1): 6.15
- Kd (PRKAA1; read-out: KDapp): 709 nM
- EC50 (ABL2): 3.24 µM
- pKDapp (ABL2): 5.97
- Kd (ABL2; read-out: KDapp): 1070 nM
- EC50 (TAOK2): 3.11 µM
- pKDapp (TAOK2): 5.74
- Kd (TAOK2; read-out: KDapp): 1830 nM
- EC50 (JAK2): 4.34 µM
- pKDapp (JAK2): 5.46
- Kd (JAK2; read-out: KDapp): 3.47 µM
- EC50 (BUB1): 6.99 µM
- pKDapp (BUB1): 5.16
- Kd (BUB1; read-out: KDapp): 6.99 µM

SMILES: C[C@@H]1COCCN1c1cc(-c2ccnn2C)c2ccnc(-c3ccn[nH]3)c2n1 [Elimusertib]
- EC50 (HuP-T4): 359 nM

SMILES: C[C@]12O[C@H](C[C@]1(O)CO)n1c3ccccc3c3c4c(c5c6ccccc6n2c5c31)CNC4=O [Lestaurtinib]
- EC50 (PANC-1): > 10000 nM
